Test results taken from patent US8227240B2, “Systems for screening pharmaceutical chemicals” (The Washington University, priority 2001, dated 2012).

System: reconstituted tissue membrane (fibroblast non-muscle myosin / actin cytoskeleton)
Assay: Tissue indentation method in 96-well plate: peak force of reconstituted tissue membrane
Type: cell-based
Method: A triangular frame made of stainless steel wire 1 mm in diameter was employed as a scaffold on which the reconstituted tissue formed. The wells are slightly tapered toward the bottom and the frame is securely positioned 1 mm above the bottom of the well (FIG. 11a). The non-polymerized solution of collagen containing cells and appropriate cell culture media as described above was poured into the wells filling the wells to a level 3 mm above the bottom (FIG. 11b). The 96-well plate was incubated at 37° C. with 5% CO2. During the incubation, cells compressed collagen matrices by squeezing liquid out from the porous collagen matrix. Without the wire frame, the reconstituted tissue contracted into a small sphere floating in the tissue culture medium. It was discovered that by utilizing different shapes of wire frames the collagen matrix was compressed into shapes corresponding to shapes of the frames. Other wire frame shapes, such as one shown in FIG. 11b, produced tissue strips with different widths. A porous support material such as a Velcro fastener was not required to facilitate tissue adhesion even to the non-porous stainless steel surfaces of a wire. The collagen was compressed to a greater extent at the outer portion of the membrane or strip. Therefore, this outer portion of the membrane can withstand stress produced by the cells and prevented it from ripping the membrane off the wire frame.
To assess the response of the tissue model samples to test agents, the resistance of the tissue samples to stretch is measured by a probe coupled to a force transducer. The stiffness of the tissue is related to the force required to move the probe by a specified amount once the probe contacts the tissue. […]
The stage is raised until the probe tip touches the membrane or strip of reconstituted tissue. Contact of the tip with the sample is detected by a sudden increase in the force registered by the isometric force transducer. […] During this trajectory the tip comes in contact with the tissue specimen and stretches it as the force is continually recorded by a data recorder. […]

C=C1[C@@H](C)[C@H]2[C@H](Cc3ccccc3)NC(=O)[C@]23[C@H](OC(C)=O)/C=C/[C@@](C)(O)C(=O)[C@@H](C)C/C=C/[C@H]3[C@@H]1O [CD, cytochalasin D]
decrease of peak force from its initial level (40 nM CD, nearly 15 min after addition, after 20% FBS): about 40% | peak force (2 μM CD, 20 min after addition): further reduction | reduction of the height of the force peaks (96-well plate, after 10% FBS): 60%
